Numbers after ± are expanded uncertainties.
Details: dynamic light scattering

COC(C)(C)C [2-methoxy-2-methylpropane]
thermal diffusivity [m2/s]
Details | Gas | Liquid
303.15 K, 101.33 kPa | – | 6.4e-08 ± 1.3e-09
303.15 K, 1500 kPa | – | 6.66e-08 ± 1.3e-09
303.15 K, 2500 kPa | – | 6.7e-08 ± 1.4e-09
303.15 K, 4000 kPa | – | 6.75e-08 ± 1.4e-09
303.15 K, 5500 kPa | – | 6.79e-08 ± 1.4e-09
303.15 K, 7000 kPa | – | 6.81e-08 ± 1.4e-09
303.15 K, 8500 kPa | – | 6.83e-08 ± 1.4e-09
303.15 K, 10000 kPa | – | 6.85e-08 ± 1.4e-09
313.15 K, 101.33 kPa | – | 6.17e-08 ± 1.2e-09
318.15 K, 1500 kPa | – | 6.29e-08 ± 1.3e-09
318.15 K, 2500 kPa | – | 6.32e-08 ± 1.3e-09
318.15 K, 4000 kPa | – | 6.37e-08 ± 1.3e-09
318.15 K, 5500 kPa | – | 6.4e-08 ± 1.3e-09
318.15 K, 7000 kPa | – | 6.44e-08 ± 1.3e-09
318.15 K, 8500 kPa | – | 6.47e-08 ± 1.3e-09
318.15 K, 10000 kPa | – | 6.49e-08 ± 1.3e-09
323.15 K, 101.33 kPa | – | 5.87e-08 ± 1.2e-09
333.15 K, 101.33 kPa | – | 5.7e-08 ± 1.2e-09
333.15 K, 1500 kPa | – | 5.94e-08 ± 1.2e-09
333.15 K, 2500 kPa | – | 5.97e-08 ± 1.2e-09
333.15 K, 4000 kPa | – | 6e-08 ± 1.2e-09
333.15 K, 5500 kPa | – | 6.05e-08 ± 1.2e-09
333.15 K, 7000 kPa | – | 6.09e-08 ± 1.2e-09
333.15 K, 8500 kPa | – | 6.15e-08 ± 1.2e-09
333.15 K, 10000 kPa | – | 6.21e-08 ± 1.3e-09
343.15 K, 101.33 kPa | – | 5.42e-08 ± 1.1e-09
348.15 K, 1500 kPa | – | 5.62e-08 ± 1.1e-09
348.15 K, 2500 kPa | – | 5.63e-08 ± 1.1e-09
348.15 K, 4000 kPa | – | 5.68e-08 ± 1.1e-09
348.15 K, 5500 kPa | – | 5.72e-08 ± 1.2e-09
348.15 K, 7000 kPa | – | 5.78e-08 ± 1.2e-09
348.15 K, 8500 kPa | – | 5.85e-08 ± 1.2e-09
348.15 K, 10000 kPa | – | 5.92e-08 ± 1.2e-09
353.15 K, 101.33 kPa | – | 5.26e-08 ± 1.1e-09
363.15 K, 101.33 kPa | – | 5.05e-08 ± 1e-09
363.15 K, 1500 kPa | – | 5.33e-08 ± 1.1e-09
363.15 K, 2500 kPa | – | 5.34e-08 ± 1.1e-09
363.15 K, 4000 kPa | – | 5.38e-08 ± 1.1e-09
363.15 K, 5500 kPa | – | 5.43e-08 ± 1.1e-09
363.15 K, 7000 kPa | – | 5.5e-08 ± 1.1e-09
363.15 K, 8500 kPa | – | 5.57e-08 ± 1.1e-09
363.15 K, 10000 kPa | – | 5.68e-08 ± 1.1e-09
373.15 K, 101.33 kPa | – | 4.83e-08 ± 1e-09
378.15 K, 1500 kPa | – | 5.06e-08 ± 1e-09
378.15 K, 2500 kPa | – | 5.07e-08 ± 1e-09
378.15 K, 4000 kPa | – | 5.1e-08 ± 1e-09
378.15 K, 5500 kPa | – | 5.15e-08 ± 1e-09
378.15 K, 7000 kPa | – | 5.23e-08 ± 1.1e-09
378.15 K, 8500 kPa | – | 5.32e-08 ± 1.1e-09
378.15 K, 10000 kPa | – | 5.44e-08 ± 1.1e-09
383.15 K, 101.33 kPa | – | 4.72e-08 ± 1e-09
393.15 K, 101.33 kPa | – | 4.64e-08 ± 9e-10
393.15 K, 1500 kPa | – | 4.83e-08 ± 1e-09
393.15 K, 2500 kPa | – | 4.83e-08 ± 1e-09
393.15 K, 4000 kPa | – | 4.86e-08 ± 1e-09
393.15 K, 5500 kPa | – | 4.92e-08 ± 1e-09
393.15 K, 7000 kPa | – | 4.99e-08 ± 1e-09
393.15 K, 8500 kPa | – | 5.09e-08 ± 1e-09
393.15 K, 10000 kPa | – | 5.21e-08 ± 1.1e-09
403.15 K, 101.33 kPa | – | 4.55e-08 ± 9e-10
403.15 K, 1500 kPa | – | 4.68e-08 ± 9e-10
403.15 K, 2500 kPa | – | 4.69e-08 ± 9e-10
403.15 K, 4000 kPa | – | 4.71e-08 ± 1e-09
403.15 K, 5500 kPa | – | 4.77e-08 ± 1e-09
403.15 K, 7000 kPa | – | 4.85e-08 ± 1e-09
403.15 K, 8500 kPa | – | 4.95e-08 ± 1e-09
403.15 K, 10000 kPa | – | 5.08e-08 ± 1e-09
413.1 K, 1500 kPa | – | 4.54e-08 ± 9e-10
413.1 K, 2500 kPa | – | 4.55e-08 ± 9e-10
413.1 K, 4000 kPa | – | 4.58e-08 ± 9e-10
413.1 K, 5500 kPa | – | 4.64e-08 ± 9e-10
413.1 K, 7000 kPa | – | 4.72e-08 ± 1e-09
413.1 K, 8500 kPa | – | 4.82e-08 ± 1e-09
413.1 K, 10000 kPa | – | 4.95e-08 ± 1e-09
413.15 K, 101.33 kPa | – | 4.48e-08 ± 9e-10
423.15 K, 101.33 kPa | – | 4.38e-08 ± 9e-10
423.15 K, 1500 kPa | – | 4.42e-08 ± 9e-10
423.15 K, 2500 kPa | – | 4.43e-08 ± 9e-10
423.15 K, 4000 kPa | – | 4.46e-08 ± 9e-10
423.15 K, 5500 kPa | – | 4.51e-08 ± 9e-10
423.15 K, 7000 kPa | – | 4.59e-08 ± 9e-10
423.15 K, 8500 kPa | – | 4.7e-08 ± 1e-09
423.15 K, 10000 kPa | – | 4.83e-08 ± 1e-09
433.15 K, 101.33 kPa | – | 4.31e-08 ± 9e-10
433.15 K, 1500 kPa | – | 4.32e-08 ± 9e-10
433.15 K, 2500 kPa | – | 4.32e-08 ± 9e-10
433.15 K, 4000 kPa | – | 4.36e-08 ± 9e-10
433.15 K, 5500 kPa | – | 4.41e-08 ± 9e-10
433.15 K, 7000 kPa | – | 4.49e-08 ± 9e-10
433.15 K, 8500 kPa | – | 4.59e-08 ± 9e-10
433.15 K, 10000 kPa | – | 4.72e-08 ± 1e-09
443.15 K, 101.33 kPa | – | 4.18e-08 ± 8e-10
443.15 K, 2500 kPa | – | 4.23e-08 ± 9e-10
443.15 K, 4000 kPa | – | 4.26e-08 ± 9e-10
443.15 K, 5500 kPa | – | 4.31e-08 ± 9e-10
443.15 K, 7000 kPa | – | 4.39e-08 ± 9e-10
443.15 K, 8500 kPa | – | 4.49e-08 ± 9e-10
443.15 K, 10000 kPa | – | 4.61e-08 ± 9e-10
453.15 K, 101.33 kPa | 2.36e-07 ± 5e-09 | 4.05e-08 ± 8e-10
453.15 K, 2500 kPa | – | 4.15e-08 ± 8e-10
453.15 K, 4000 kPa | – | 4.18e-08 ± 8e-10
453.15 K, 5500 kPa | – | 4.23e-08 ± 9e-10
453.15 K, 7000 kPa | – | 4.3e-08 ± 9e-10
453.15 K, 8500 kPa | – | 4.4e-08 ± 9e-10
453.15 K, 10000 kPa | – | 4.51e-08 ± 9e-10
455.15 K, 101.33 kPa | 2.06e-07 ± 4e-09 | –
457.15 K, 101.33 kPa | 1.87e-07 ± 4e-09 | –
458.15 K, 101.33 kPa | – | 3.91e-08 ± 8e-10
458.15 K, 2500 kPa | – | 4.11e-08 ± 8e-10
458.15 K, 4000 kPa | – | 4.15e-08 ± 8e-10
458.15 K, 5500 kPa | – | 4.2e-08 ± 8e-10
458.15 K, 7000 kPa | – | 4.27e-08 ± 9e-10
458.15 K, 8500 kPa | – | 4.36e-08 ± 9e-10
458.15 K, 10000 kPa | – | 4.47e-08 ± 9e-10
459.15 K, 101.33 kPa | 1.72e-07 ± 3e-09 | –
461.15 K, 101.33 kPa | 1.62e-07 ± 3e-09 | –
463.15 K, 101.33 kPa | 1.54e-07 ± 3e-09 | 3.86e-08 ± 8e-10
463.15 K, 2500 kPa | – | 4.08e-08 ± 8e-10
463.15 K, 4000 kPa | – | 4.11e-08 ± 8e-10
463.15 K, 5500 kPa | – | 4.16e-08 ± 8e-10
463.15 K, 7000 kPa | – | 4.23e-08 ± 9e-10
463.15 K, 8500 kPa | – | 4.32e-08 ± 9e-10
463.15 K, 10000 kPa | – | 4.43e-08 ± 9e-10
465.15 K, 101.33 kPa | 1.47e-07 ± 3e-09 | –
467.15 K, 101.33 kPa | 1.38e-07 ± 3e-09 | –
468.15 K, 101.33 kPa | – | 3.66e-08 ± 7e-10
468.15 K, 2500 kPa | – | 4.05e-08 ± 8e-10
468.15 K, 4000 kPa | – | 4.09e-08 ± 8e-10
468.15 K, 5500 kPa | – | 4.14e-08 ± 8e-10
468.15 K, 7000 kPa | – | 4.2e-08 ± 8e-10
468.15 K, 8500 kPa | – | 4.28e-08 ± 9e-10
468.15 K, 10000 kPa | – | 4.38e-08 ± 9e-10
469.15 K, 101.33 kPa | 1.31e-07 ± 3e-09 | –
471.15 K, 101.33 kPa | 1.22e-07 ± 3e-09 | –
473.15 K, 101.33 kPa | 1.14e-07 ± 2e-09 | 3.55e-08 ± 7e-10
473.15 K, 2500 kPa | – | 4.02e-08 ± 8e-10
473.15 K, 4000 kPa | – | 4.06e-08 ± 8e-10
473.15 K, 5500 kPa | – | 4.11e-08 ± 8e-10
473.15 K, 7000 kPa | – | 4.18e-08 ± 8e-10
473.15 K, 8500 kPa | – | 4.25e-08 ± 9e-10
473.15 K, 10000 kPa | – | 4.34e-08 ± 9e-10
475.15 K, 101.33 kPa | 1.05e-07 ± 2e-09 | 3.47e-08 ± 7e-10
477.15 K, 101.33 kPa | 9.7e-08 ± 2e-09 | 3.36e-08 ± 7e-10
479.15 K, 101.33 kPa | 8.8e-08 ± 2e-09 | 3.36e-08 ± 7e-10
481.15 K, 101.33 kPa | 7.8e-08 ± 2e-09 | 3.3e-08 ± 7e-10
483.15 K, 101.33 kPa | 7e-08 ± 2e-09 | 3.22e-08 ± 7e-10
483.15 K, 4000 kPa | – | 4.02e-08 ± 8e-10
483.15 K, 5500 kPa | – | 4.07e-08 ± 8e-10
483.15 K, 7000 kPa | – | 4.12e-08 ± 8e-10
483.15 K, 8500 kPa | – | 4.19e-08 ± 8e-10
483.15 K, 10000 kPa | – | 4.27e-08 ± 9e-10
485.15 K, 101.33 kPa | 6.2e-08 ± 1e-09 | 3.07e-08 ± 6e-10
487.15 K, 101.33 kPa | 5.6e-08 ± 1e-09 | 3.02e-08 ± 6e-10
489.15 K, 101.33 kPa | 5e-08 ± 1e-09 | 2.95e-08 ± 6e-10
491.15 K, 101.33 kPa | 4.3e-08 ± 1e-09 | 2.81e-08 ± 6e-10
493.15 K, 101.33 kPa | 3.1e-08 ± 1e-09 | 2.73e-08 ± 6e-10
493.15 K, 4000 kPa | – | 3.99e-08 ± 8e-10
493.15 K, 5500 kPa | – | 4.03e-08 ± 8e-10
493.15 K, 7000 kPa | – | 4.08e-08 ± 8e-10
493.15 K, 8500 kPa | – | 4.14e-08 ± 8e-10
493.15 K, 10000 kPa | – | 4.21e-08 ± 9e-10

Reference: the NIST ThermoML archive (doi:10.1021/je5008394)
